Experimental data published in PubChem BioAssay (NCI).
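Cells were grown in 96-well plates and exposed to each compound for 48 hours at five concentrations; endpoints were interpolated linearly between bracketing concentrations, or set to the highest concentration if not reached. GI50: concentration for 50% inhibition of growth. At the TGI there is no net growth.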

Key:
Assay in all cases: DTP human tumour cell line panel, 48 h
EKVX NSCLC = test system: EKVX NSCLC
HOP-62 NSCLC = test system: HOP-62 NSCLC
M14 melanoma = test system: M14 melanoma
MCF7 breast = test system: MCF7 breast
MDA-MB-231 breast = test system: MDA-MB-231 breast
NCI-H23 lung = test system: NCI-H23 lung
OVCAR-3 ovarian = test system: OVCAR-3 ovarian
SK-OV-3 ovarian = test system: SK-OV-3 ovarian
T-47D breast = test system: T-47D breast
TK-10 renal = test system: TK-10 renal

Row | SMILES | TGI (EKVX NSCLC) [µM] | TGI (HOP-62 NSCLC) [µM] | TGI (M14 melanoma) [µM] | TGI (MCF7 breast) [µM] | TGI (MDA-MB-231 breast) [µM] | TGI (NCI-H23 lung) [µM] | TGI (OVCAR-3 ovarian) [µM] | TGI (SK-OV-3 ovarian) [µM] | TGI (T-47D breast) [µM] | TGI (TK-10 renal) [µM] | GI50 (EKVX NSCLC) [µM] | GI50 (HOP-62 NSCLC) [µM] | GI50 (M14 melanoma) [µM] | GI50 (MCF7 breast) [µM] | GI50 (MDA-MB-231 breast) [µM] | GI50 (NCI-H23 lung) [µM] | GI50 (OVCAR-3 ovarian) [µM] | GI50 (SK-OV-3 ovarian) [µM] | GI50 (T-47D breast) [µM] | GI50 (TK-10 renal) [µM]
1 | Cc1nc2cccc([N+](=O)[O-])c2n1CCCN(C)C | > 100 | > 100 | > 100 | > 100 | > 100 | > 100 | > 100 | > 100 | > 100 | > 100 |  |  |  |  |  |  |  |  |  | 
2 | NC(N)=NS(=O)(=O)c1ccc(NC(=O)c2ccc3nc4ccccc4c(N)c3c2)cc1 | > 100 | > 100 | > 100 | > 100 | > 100 | > 100 | > 100 | > 100 | > 100 | > 100 |  |  |  |  |  |  |  |  |  | 
3 | COc1cccc(C=C2N=C(C)N(n3c(-c4ccccc4)nc4ccccc4c3=O)C2=O)c1 | > 100 | > 100 | > 100 | > 100 | > 100 | > 100 |  | > 100 | > 100 | > 100 |  |  |  |  |  |  |  |  |  | 
4 | COc1ccc(-c2cc(-c3ccccc3)nc3c2CC(=O)Nc2ccccc2-3)cc1OC | > 100 | 18.2 | > 100 | > 43.1 | 6.21 | > 100 | > 100 | > 92.6 | > 100 | > 100 |  |  |  |  |  |  |  |  |  | 
5 | Cc1nc2ccccc2n1Cc1nnc2n1N=C(c1ccccc1)CS2 | > 100 | > 100 | > 100 | > 100 | 62.9 | > 100 | > 100 | > 100 | 43.5 | > 100 |  |  |  |  |  |  |  |  |  | 
6 | CCn1c(=O)c2c3cc(OC(C)=O)ccc3oc2c2ccc(OC(C)=O)cc21 | 70.3 | > 100 | > 100 | > 100 | > 100 | > 100 | > 100 | > 100 | 75.4 | > 100 |  |  |  |  |  |  |  |  |  | 
7 | O[C@H]1[C@H](O)[C@@H](Cn2nnc(-c3ccccc3)c2-c2ccccc2)OCO[C@@H]1Cn1nnc(-c2ccccc2)c1-c1ccccc1 | 30.1 | 29 | 11.7 | 11.5 | 16.4 | 26.2 | 9.14 | 27.2 | 31.6 | 19 |  |  |  |  |  |  |  |  |  | 
8 | Nc1c2c(nc3ccccc13)CCCc1ccccc1-2 | 38.9 | 28 | 21.6 | 29.2 | 19.8 | > 100 | > 100 | > 100 | 37.5 | 18.8 |  |  |  |  |  |  |  |  |  | 
9 | C[N+](C)(C)C(C1=CCCC1=O)c1ccccc1 (stereo unspecified) | > 100 | 80.2 | > 100 | 56.7 | 75.5 | > 100 | > 100 | > 100 | > 100 | > 100 |  |  |  |  |  |  |  |  |  | 
10 | Cc1ccc(S(=O)(=O)N2CCCSCCN(S(=O)(=O)c3ccc(C)cc3)CCCSCC2)cc1 | > 100 | > 100 | > 100 | > 100 | > 100 | > 100 | > 100 | > 100 | > 100 | > 100 |  |  |  |  |  |  |  |  |  | 
11 | O=P1(Oc2ccccc2)NCc2ncccc2O1 (stereo unspecified) | > 100 | > 100 | > 100 | > 100 | > 100 | > 100 | > 100 |  | > 100 |  |  |  |  |  |  |  |  |  |  | 
12 | C=CCn1c(-c2ccc(Cl)cc2Cl)csc1=Nc1c(C)n(C)n(-c2ccccc2)c1=O | 13.5 | 29.7 | 23.8 | 25.4 | 30 | 23.4 | 23.7 | 19.4 | 16.6 | 25.7 |  |  |  |  |  |  |  |  |  | 
13 | CCOC(=O)C1=C(C)NC(C)=C(C(=O)OCC)C1c1ccc(C)cc1 | > 100 | > 100 | > 100 | 47.3 | 84.3 | > 100 | 87.7 | > 100 | > 100 | > 100 |  |  |  |  |  |  |  |  |  | 
14 | CC(=O)OCCOCCN1CCN(c2c(O)c3c(c(O)c2Cl)C(=O)C=CC3=O)CC1 | 3.22 | 7.1 | 1.48 | 0.976 | 1.09 | 1.98 | 2 | 6.06 | 2.77 | 1.62 |  |  |  |  |  |  |  |  |  | 
15 | CCOP(C)(=O)/C(Cc1ccc(OC)c(OC)c1)=N\O (stereo unspecified) | > 100 | > 100 | > 100 | > 100 | > 100 | > 100 | > 100 | > 100 | > 100 | > 100 |  |  |  |  |  |  |  |  |  | 
16 | NC(=O)C1N=NSC1NC(=O)c1ccc([N+](=O)[O-])cc1 (stereo unspecified) | > 100 | > 100 | > 100 | > 100 | > 100 | > 100 | > 100 | > 100 | > 100 | > 100 |  |  |  |  |  |  |  |  |  | 
17 | CCCCCCCCCCCCCCCCOc1ccc(/C=C/C2=[N+](CCCl)CCO2)cc1 | > 100 | > 100 | > 100 | > 100 | 83.5 |  | > 100 | > 100 | > 100 | > 100 |  |  |  |  |  |  |  |  |  | 
18 | CS/C=C\C(=O)O[C@H]1C[C@@H]2[C@@H](O)c3occ(C)c3C[C@]2(C)[C@@H](C)C1 | > 100 | 40.9 | 38.5 | 57.4 | 41.7 | 85.8 | 31 | > 100 | 76.9 | > 100 |  |  |  |  |  |  |  |  |  | 
19 | NC(=S)N/N=C1\CCCCC1C(O)(C(F)(F)Cl)C(F)(F)Cl (stereo unspecified) | > 10 | > 10 | > 10 | > 10 | > 10 | > 10 | > 10 | > 10 | > 10 | > 10 |  |  |  |  |  |  |  |  |  | 
20 | C[C@]12CCc3sc(-c4cccc(F)c4)nc3C1=CC[C@@H]1[C@@H]2CC[C@]2(C)C(=O)CC[C@@H]12 | 87.2 | 11.8 | > 100 | 4.26 | 7.34 | 33.5 | 3.79 | 9.13 | 5.24 | 8.29 | 4.79 | 3.1 | 6.62 | 1.78 | 2.6 | 3.54 | 1.92 | 2.91 | 2 | 2.77
